PMC6095626, “Screening of the Pathogen Box for inhibitors with dual efficacy against Giardia lamblia and Cryptosporidium parvum” (PLoS Neglected Tropical Diseases, 2018)

How the values were obtained:
[1] = tested on: G. lamblia trophozoites (luciferase expressing, WBC6); assay: microbe, parasite or virus in culture; type: cell-based, Giardia lamblia; details: for Giardia (16 uM) Mean % inhibition: initial Pathogen Box screen, single concentration 16 µM, inhibition compared to DMSO wells
Outline: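 Luciferase-expressing WBC6 trophozoites plated at 250,000 cells/mL, compounds added 1:1, incubated anaerobically (GasPak bags) at 37 °C for 24 h; viability read by bioluminescence, with duplicate plates counted on a MOXI Z cell counter. Metronidazole control serially diluted 1:2 from 40 μM.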

[2] = tested on: C. parvum (UGA1 Nluc expressing strain in HCT-8 cells); assay: microbe, parasite or virus in culture; type: cell-based, Cryptosporidium parvum; details: for Crypto (10 uM) Mean % inhibition: initial Pathogen Box screen, single concentration 10 µM, inhibition compared to DMSO wells
Outline: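 HCT-8 monolayers grown 48 h to 90–100% confluence, treated with compound at 10 μM or serial dilutions, then infected with bleach-treated UGA1 Nluc C. parvum oocysts.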

Row | SMILES | Giardia (16 uM) Mean % inhibition [1] | Crypto (10 uM) Mean % inhibition [2] | other results
1 | O=C(NCCN1CCCC1)c1cc(NCCN2CCOCC2)nc2ccc(Cl)cc12 [MMV634140] | 27% | X* (Mean or standard deviation are negative but not significantly different from the control to be a growth promoter) | 
2 | Cc1ccc(C(=O)Nc2ccc(S(=O)(=O)O)c3cc(S(=O)(=O)O)cc(S(=O)(=O)O)c23)cc1NC(=O)c1cccc(NC(=O)Nc2cccc(C(=O)Nc3cc(C(=O)Nc4ccc(S(=O)(=O)O)c5cc(S(=O)(=O)O)cc(S(=O)(=O)O)c45)ccc3C)c2)c1 [MMV637953] | 10% | 36% | 
3 | O=C(Nc1ccc2c(c1)B(O)OC2)c1ccccc1C(F)(F)F [MMV652003] | 14% | 94% | 
4 | Cc1nc(-c2ccccn2)nc(N(C)CCc2ccccc2)c1Cl [MMV658988] | X* (Mean or standard deviation are negative but not significantly different from the control to be a growth promoter) | 33% | 
5 | Cc1nc(-c2ccccn2)nc(NCCc2ccc(S(C)(=O)=O)cc2)c1Cl [MMV658993] | 11% | X* (Mean or standard deviation are negative but not significantly different from the control to be a growth promoter) | 
6 | Cc1nc(-c2ccccn2)nc(N2CCC(Cc3ccccc3)C2)c1Cl (stereo not drawn) [MMV659004] | 13% | 66% | 
7 | FC(F)(F)c1cc(NCCc2ccccc2)nc(-c2ccccn2)n1 [MMV659010] | 41% | 15% | 
8 | Brc1cncc(-c2cc(NCCCn3ccnc3)nc(-c3ccccc3)n2)c1 [MMV661713] | X* (Mean or standard deviation are negative but not significantly different from the control to be a growth promoter) | X* (Mean or standard deviation are negative but not significantly different from the control to be a growth promoter) | 
9 | Clc1cccc(C(c2ccc(CN3CCNCC3)cc2)n2ccnc2)c1 (stereo not drawn) [MMV663250] | 14% | 52% | 
10 | O=C(NCCN1CCCC1)c1cc(NCCCCN2CCC(F)(F)CC2)nc2ccc(Cl)cc12 [MMV667494] | 82% | X* (Mean or standard deviation are negative but not significantly different from the control to be a growth promoter) | 
11 | Nc1ncc(-c2ccc(C(F)(F)F)nc2)cc1-c1ccc(C(F)(F)F)nc1 [MMV668727] | 0.605% | 82% | 
12 | Cc1[nH]c2cc(F)cc(F)c2c(=O)c1-c1ccc(Oc2ccc(OC(F)(F)F)cc2)cc1 [MMV671636] | 18% | X* (Mean or standard deviation are negative but not significantly different from the control to be a growth promoter) | 
13 | COc1ccc(OC)c(NCc2ccc3nc(N)nc(N)c3c2Cl)c1 [MMV675968] |  |  | G. lamblia inhibition of parasite growth in the initial screen ([1]; 16 μM, 24 hours): 90%; G. lamblia EC50 ([1]; luciferase expressing G. lamblia trophozoites, 24 hours, D-luciferin bioluminescence read-out): not potent; EC50 ([1]; luciferase expressing G. lamblia trophozoites, 24 hours, D-luciferin bioluminescence read-out, read-out: G. lamblia EC50): > 10000 nM; C. parvum cell growth inhibition in the initial screen ([2]; 10 μM, 48 hours): 88%; EC50 ([2]; Nluc C. parvum in HCT-8 cells, 48 hours, read-out: C. parvum EC50): 2100 nM
14 | CC(C)(C)c1ccc(N[C@@H]2CCCC[C@H]2NC(=O)c2ccco2)cc1 [MMV675969] | 32% | X* (Mean or standard deviation are negative but not significantly different from the control to be a growth promoter) | 
15 | COc1ccc(-c2nn(C(C)C)c3ncnc(N)c23)cc1OC [MMV675993] | X* (Mean or standard deviation are negative but not significantly different from the control to be a growth promoter) | 89% | 
16 | Clc1ccc(-n2cc(COc3ccnc4ccccc34)nn2)cc1 [MMV675994] | 15% | 94% | 
17 | COc1ccc(N(CCc2cccc(C)n2)C(C)=O)cc1 [MMV675995] | 26% | 26% | 
18 | COc1ccc(N(CCc2cccc(C)n2)C(=O)C2CCCCC2)cc1 [MMV675996] | 16% | X* (Mean or standard deviation are negative but not significantly different from the control to be a growth promoter) | 
19 | N#CCN(CCCCN1CCN(c2ccc(F)cc2)CC1)C(=O)OCc1ccccc1 [MMV675997] | 29% | 56% | 
20 | COc1ccc(C(=N)N)cc1-c1cn(-c2ccc(C(=N)N)cc2)nn1 [MMV675998] | 30% | X* (Mean or standard deviation are negative but not significantly different from the control to be a growth promoter) | 
21 | O=C(Nc1c(O)cccc1-c1nc2c(C(=O)O)cccc2o1)c1cc(-c2ccccc2)on1 [MMV676008] | 41% | X* (Mean or standard deviation are negative but not significantly different from the control to be a growth promoter) | 
22 | Clc1ccc(Cl)c(CO[C@H]2CCCC[C@@H]2n2ccnc2)c1 [MMV676048] | 37% | 49% | 
23 | CS(=O)(=O)N1CCC(Cn2nc(Cc3cccc4ccccc34)c3c(N)ncnc32)CC1 [MMV676050] | 18% | 79% | 

Row | SMILES | Giardia (16 uM) Mean % inhibition [1] | Crypto (10 uM) Mean % inhibition [2] | other results
24 | COc1cc(NC(=O)Cc2nn(C)c(=O)c3ccccc23)ccc1Cl [MMV676053] | X* (Mean or standard deviation are negative but not significantly different from the control to be a growth promoter) | 84% | 
25 | CC(C)(C)OC(=O)N1CCN(c2cc(-c3ccc(Oc4ccccc4)cc3)n[nH]2)CC1 [MMV676057] | 52% | X* (Mean or standard deviation are negative but not significantly different from the control to be a growth promoter) | 
26 | CCCCc1ccc(NC(=O)Nc2ccc(O[C@H]3CCCC[C@@H]3N(C)c3ccccc3)c(F)c2)cc1 [MMV676063] | 29% | 82% | 
27 | CC(=O)N(CCN(C(=O)c1ccc(F)cc1)c1ccccc1)c1ccccc1 [MMV676064] | 28% | 28% | 
28 | Clc1cccc(CO[C@H]2CCc3ccccc3[C@@H]2n2ccnn2)c1 [MMV676159] | 30% | X* (Mean or standard deviation are negative but not significantly different from the control to be a growth promoter) | 
29 | c1ccc(Oc2ccc(-c3cc(CN4CCOCC4)[nH]n3)cc2)cc1 [MMV676161] | 33% | X* (Mean or standard deviation are negative but not significantly different from the control to be a growth promoter) | 
30 | O=C(Nc1ccccc1-c1nc2c(C(=O)O)cccc2o1)c1ccccc1 [MMV676162] | 1.55% | 48% | 
31 | Nc1ncnc2c1c(Cc1cccc3ccccc13)nn2CC1CCNCC1 [MMV676182] | 0.413% | 59% | 
32 | COC(=O)c1cccc2oc(-c3cccc(OC)c3NC(=O)c3cc(-c4ccccc4)on3)nc12 [MMV676186] | 19% | 28% | 
33 | O=C(c1ccc(F)cc1)N(CCNc1ccccc1)c1ccccc1 [MMV676204] | 28% | 55% | 
34 | CN1CCN(c2nccc3nc(-c4ccc(F)c(F)c4)[nH]c23)CC1 [MMV676260] | 29% | 33% | 
35 | C[C@H](C(N)=O)N1CCCC[C@H]1c1ccc(OCc2cccc(F)c2)cc1 [MMV676269] | 69% | 7% | 
36 | C[C@H](C(N)=O)N1CCCC[C@@H]1c1ccc(OCc2cccc(F)c2)cc1 [MMV676270] | 20% | 6.67% | 
37 | Cc1c[nH]c(CCNC(=O)c2cc(-c3ccc(Cl)cc3)cs2)n1 [MMV676350] | 17% | X* (Mean or standard deviation are negative but not significantly different from the control to be a growth promoter) | 
38 | Nc1ncc(Br)cc1-c1nc2cc(Cl)cnc2[nH]1 [MMV676358] | 90% | X* (Mean or standard deviation are negative but not significantly different from the control to be a growth promoter) | 
39 | Brc1c(-c2ccc3c(c2)OCO3)nc2ncccn12 [MMV676377] | 40% | X* (Mean or standard deviation are negative but not significantly different from the control to be a growth promoter) | 
40 | COc1cccc(OCC(=O)c2ccc(Br)cc2)c1 [MMV676379] | 80% | 55% | 
41 | CC(=O)Nc1ccc(NC(=O)c2cc(-c3cc(Cl)ccc3O)n[nH]2)cc1 [MMV676380] | X* (Mean or standard deviation are negative but not significantly different from the control to be a growth promoter) | 34% | 
42 | Cn1ncc2c(N3CCOCC3)nc(NCCc3c[nH]c4ccccc34)nc21 [MMV676382] | 60% | 83% | 
43 | CCC(Sc1nc2ccccc2o1)C(=O)Nc1nccs1 (stereo not drawn) [MMV676383] | 88% | 57% | 
44 | N#Cc1nc(-c2ccccc2F)oc1NCCc1ccccc1 [MMV676384] | 21% | 40% | 
45 | Cc1cccc(Cn2ccc(NC(=O)c3ccc4c(c3)OCO4)n2)c1 [MMV676386] | 57% | 53% | 
